Melting point data for 26 compounds are collected here from patent publication US7304077B2, “Chemical compounds” (AstraZeneca AB, priority 2001, dated 2007).

As usually defined, the melting point is the temperature of the solid-liquid transition. For `COc1cccc(C(=O)N(C)CCN2CCC(Oc3ccc(F)c(F)c3)CC2)c1.Cl`, the melting point was 218 °C.
For `CS(=O)(=O)c1cccc(C(=O)NCCN2CCC(Oc3ccc(Cl)c(Cl)c3)CC2)c1.Cl` the value was 219 °C; for `CS(=O)(=O)c1cccc(C(=O)NCCCN2CCC(Oc3ccc(Cl)c(Cl)c3)CC2)c1.Cl`, 212 °C.
The same measure for `CS(=O)(=O)Cc1cccc(C(=O)NCCN2CCC(Oc3ccc(Cl)c(Cl)c3)CC2)c1` [Compound 5 of Table I, N-{2-[4-(3,4-dichlorophenoxy)-1-piperidinyl]ethyl}-3-[(methylsulfonyl)methyl]benzamide]: 112 to 114 °C; for `CS(=O)(=O)Cc1ccc(C(=O)NCCN2CCC(Oc3ccc(Cl)c(Cl)c3)CC2)cc1` [Compound 7 of Table I, N-{2-[4-(3,4-dichlorophenoxy)-1-piperidinyl]ethyl}-4-[(methylsulfonyl)methyl]benzamide]: 179 to 181 °C.
For `CS(=O)(=O)Nc1cccc(C(=O)NCCN2CCC(Oc3ccc(Cl)c(Cl)c3)CC2)c1` [Compound 24 of Table I, N-{2-[4(3,4-dichlorophenoxy)-1-piperidinyl]ethyl}-3-[(methylsulfonyl)amino]benzamide] the value was 150 to 151 °C.
As for `O=C(Cn1nnc(N2CCCC2)n1)NCCN1CCC(Oc2ccc(Cl)c(Cl)c2)CC1` [Compound 34 of Table II, N-{2-[4-(3,4-dichlorophenoxy)-1-piperidinyl]ethyl}-2-[5-(1-pyrrolidinyl)-2H-tetraazol-2-yl]acetamide], the melting point lay in the range of 114 to 116 °C.
In turn, `NS(=O)(=O)c1cccc(C(=O)NCCN2CCC(Oc3ccc(Cl)c(Cl)c3)CC2)c1` [Example 22, 3-(aminosulfonyl)-N-{2-[4-(3,4-dichlorophenoxy)-1-piperidinyl]ethyl}benzamide] returned a melting point of 168 to 169 °C.
The same measure for `CCn1cc(C(=O)NCCN2CCC(Oc3ccc(Cl)c(Cl)c3)CC2)c(=O)c2ccc(C)nc21` [Example 23, N-{2-[4-(3,4-dichlorophenoxy)-1-piperidinyl]ethyl}-1-ethyl-7-methyl-4-oxo-1,4-dihydro[1,8]naphthyridine-3-carboxamide]: 169 to 217 °C; for `CS(=O)(=O)c1ccc(C(=O)NCCN2CCC(Oc3ccc(Cl)c(Cl)c3)CC2)s1` [Example 27, N-{2-[4-(3,4-dichlorophenoxy)-1-piperidinyl]ethyl}-5-(methylsulfonyl)-2-thiophenecarboxamide]: 142 to 143 °C; for `O=C(NCCN1CCC(Oc2ccc(Cl)c(Cl)c2)CC1)c1ccc(-n2cccn2)nc1` [Example 28, N-{2-[4-(3,4-dichlorophenoxy)-1-piperidinyl]ethyl}-6-(1H-pyrazol-1-yl)nicotinamide]: 154 to 155 °C.
The same measure for `CS(=O)(=O)c1ccc(C(=O)NCCN2CCC(Oc3ccc(Cl)c(Cl)c3)CC2)cc1` [Example 29, N-{2-[4-(3,4-dichlorophenoxy)-1-piperidinyl]ethyl}-4-(methylsulfonyl)benzamide]: 100 to 101 °C; for `O=C(NCCN1CCC(Oc2ccc(Cl)c(Cl)c2)CC1)c1cn2ccccc2n1` [Example 30, N-{2-[4-(3,4-dichlorophenoxy)-1-piperidinyl]ethyl}imidazo[1,2-a]pyridine-2-carboxamide]: 150 to 151 °C; for `O=C(NCCN1CCC(Oc2ccc(Cl)c(Cl)c2)CC1)c1nnc(Nc2ccccc2Cl)o1` [Example 31, 5-(2-chloroanilino)-N-{2-[4-(3,4-dichlorophenoxy)-1-piperidinyl]ethyl}-1,3,4-oxadiazole-2-carboxamide]: 161 to 162 °C.
The compound `O=C(NCCN1CCC(Oc2ccc(F)cc2Cl)CC1)c1ccc(-n2cccn2)nc1` [Example 32, N-{2-[4-(2-chloro-4-fluorophenoxy)-1-piperidinyl]ethyl}-6-(1H-pyrazol-1-yl)nicotinamide] gave a melting point of 109 to 110 °C.
Consider `CS(=O)(=O)c1cccc(C(=O)NCCN2CCC(Oc3ccc(F)cc3Cl)CC2)c1` [Example 33, N-{2-[4-(2-chloro-4-fluorophenoxy)-1-piperidinyl]ethyl}-3-(methylsulfonyl)benzamide], for which the melting point lay within 50 to 51 °C.
For `Cc1c(Cl)ccc(OC2CCN(CCNC(=O)c3ccc(S(C)(=O)=O)cc3)CC2)c1Cl` [Example 34, N-{2-[4-(2,4-dichloro-3-methylphenoxy)-1-piperidinyl]ethyl}-4-(methylsulfonyl)benzamide] the value was 171 to 172 °C; for `Cc1c(Cl)ccc(OC2CCN(CCNC(=O)c3ccc(S(C)(=O)=O)s3)CC2)c1Cl` [Example 35, N-{2-[4-(2,4-dichloro-3-methylphenoxy)-1-piperidinyl]ethyl}-5-(methylsulfonyl)-2-thiophenecarboxamide], 177 to 178 °C.
For `Cc1c(Cl)ccc(OC2CCN(CCNC(=O)c3ccccc3S(C)(=O)=O)CC2)c1Cl` [Example 36, N-{2-[4-(2,4-dichloro-3-methylphenoxy)-1-piperidinyl]ethyl}-2-(methylsulfonyl)benzamide] the value was 71 to 72 °C; for `Cc1cc(OC2CCN(CCNC(=O)c3ccc(S(C)(=O)=O)cc3)CC2)ccc1Cl` [Example 37, N-{2-[4-(4-chloro-3-methylphenoxy)-1-piperidinyl]ethyl}-4-(methylsulfonyl)benzamide], 123 to 124 °C; for `Cc1cc(OC2CCN(CCNC(=O)c3ccc(-n4cccn4)nc3)CC2)ccc1Cl` [Example 38, N-{2-[4-(4-chloro-3-methylphenoxy)-1-piperidinyl]ethyl}-6-(1H-pyrazol-1-yl)nicotinamide], 183 to 184 °C.
The same measure for `NS(=O)(=O)c1cc(C(=O)NCCN2CCC(Oc3ccc(F)c(F)c3)CC2)ccc1Cl` [Example 40, 3-(aminosulfonyl)-4-chloro-N-{2-[4-(3,4-difluorophenoxy)-1-piperidinyl]ethyl}benzamide]: 80 to 81 °C; for `N#Cc1ccccc1C(=O)NCCN1CCC(Oc2ccc(F)c(F)c2)CC1` [Example 41, 2-cyano-N-{2-[4-(3,4-difluorophenoxy)-1-piperidinyl]ethyl}benzamide]: 146 to 147 °C.
Compound `CS(=O)(=O)c1ccc(C(=O)NCCN2CCC(Oc3ccc(F)c(F)c3)CC2)c(Cl)c1` [Example 42, 2-chloro-N-{2-[4-(3,4-difluorophenoxy)-1-piperidinyl]ethyl}-4-(methylsulfonyl)benzamide] returned a melting point of 108 to 109 °C.
Consider `N#Cc1cccc(C(=O)NCCN2CCC(Oc3ccc(F)c(F)c3)CC2)c1` [Example 43, 3-cyano-N-{2-[4-(3,4-difluorophenoxy)-1-piperidinyl]ethyl}benzamide], for which the melting point is 106 to 107 °C.
The same measure for `CS(=O)(=O)Cc1ccc(C(=O)NCCN2CCC(Oc3ccc(F)c(F)c3)CC2)cc1` [Example 44, N-{2-[4-(3,4-difluorophenoxy)-1-piperidinyl]ethyl}-4-[(methylsulfonyl)methyl]benzamide]: 115 to 116 °C.
